# Results as given in patent US20100331297A1, “MODULATION OF PROTEIN TRAFFICKING” (FOLDRX PHARMACEUTICALS, INC., priority 2007, published 2010).
# How the values were obtained:
# ΔF508 CFTR [1] = biological target: T1, ΔF508 CFTR (Homo sapiens, UniProt P13569, DEL508-508); test: Potentiator activity, YFP halide (iodide) quenching assay in FRT cells expressing ΔF508 CFTR, 27° C. pre-incubation; format: cell-based; set-up: expressed in transfected cells; host or cells: Fischer rat thyroid (FRT) cells; conditions: FRT cells ΔF508 CFTR/YFP, 24 hours at 27° C., compound with forskolin 30 min
# T1 sequence (P13569 with tags, fused parts or gaps DEL508-508): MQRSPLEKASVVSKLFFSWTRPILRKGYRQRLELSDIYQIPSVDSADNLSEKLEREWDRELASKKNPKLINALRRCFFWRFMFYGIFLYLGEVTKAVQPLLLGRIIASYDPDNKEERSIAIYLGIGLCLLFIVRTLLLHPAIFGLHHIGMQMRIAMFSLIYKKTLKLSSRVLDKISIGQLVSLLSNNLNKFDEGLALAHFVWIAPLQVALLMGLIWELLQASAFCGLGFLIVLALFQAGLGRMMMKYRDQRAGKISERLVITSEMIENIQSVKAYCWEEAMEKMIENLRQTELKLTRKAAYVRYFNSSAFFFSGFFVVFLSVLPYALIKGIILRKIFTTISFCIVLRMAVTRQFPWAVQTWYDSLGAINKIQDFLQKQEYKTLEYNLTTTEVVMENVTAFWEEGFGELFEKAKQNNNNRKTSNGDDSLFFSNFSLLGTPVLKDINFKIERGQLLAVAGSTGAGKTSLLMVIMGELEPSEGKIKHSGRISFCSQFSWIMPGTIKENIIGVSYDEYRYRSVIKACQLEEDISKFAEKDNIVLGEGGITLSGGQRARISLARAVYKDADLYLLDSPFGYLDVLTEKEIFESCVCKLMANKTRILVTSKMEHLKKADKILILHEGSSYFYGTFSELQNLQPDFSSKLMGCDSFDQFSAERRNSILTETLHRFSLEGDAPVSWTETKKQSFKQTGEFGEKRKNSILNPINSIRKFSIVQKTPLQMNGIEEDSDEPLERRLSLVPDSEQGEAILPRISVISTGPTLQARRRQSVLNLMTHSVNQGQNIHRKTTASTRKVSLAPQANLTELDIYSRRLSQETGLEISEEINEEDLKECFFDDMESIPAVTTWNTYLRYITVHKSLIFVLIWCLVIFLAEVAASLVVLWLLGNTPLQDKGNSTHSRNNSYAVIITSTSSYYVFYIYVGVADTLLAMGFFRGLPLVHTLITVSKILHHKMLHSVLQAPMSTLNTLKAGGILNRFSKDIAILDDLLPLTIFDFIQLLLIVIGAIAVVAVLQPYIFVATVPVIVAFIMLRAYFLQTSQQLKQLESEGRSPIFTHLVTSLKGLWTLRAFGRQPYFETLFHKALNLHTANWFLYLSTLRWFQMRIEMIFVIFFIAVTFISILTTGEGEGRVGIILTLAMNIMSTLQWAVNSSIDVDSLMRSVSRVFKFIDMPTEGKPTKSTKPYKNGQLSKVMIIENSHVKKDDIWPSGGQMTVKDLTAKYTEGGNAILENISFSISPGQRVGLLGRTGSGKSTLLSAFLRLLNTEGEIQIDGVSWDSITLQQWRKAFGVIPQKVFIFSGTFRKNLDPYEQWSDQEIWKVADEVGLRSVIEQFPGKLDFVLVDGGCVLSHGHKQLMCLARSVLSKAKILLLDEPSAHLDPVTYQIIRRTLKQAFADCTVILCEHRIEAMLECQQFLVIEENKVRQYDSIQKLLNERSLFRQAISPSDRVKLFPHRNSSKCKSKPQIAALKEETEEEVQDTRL
# Method: Fisher rat thyroid (FRT) cells stably expressing ΔF508 CFTR and a halide-sensitive variant of yellow fluorescent protein (YFP) were seeded into microtiter plates and allowed to grow for 24 hours at 37° C. and 5% CO2, as described above. The medium was replaced with fresh medium and the cells were incubated for a further 24 hours at 27° C. and 5% CO2 to increase the level of mutant CFTR at the cell surface.
# Compounds in DMSO solution were pre-diluted into phosphate-buffered saline solution (PBS) containing forskolin. Activity of CFTR was assayed by removing the medium, washing the cell monolayer with PBS, and then applying the compounds diluted in PBS containing forskolin. After 30 min of incubation at 37° C., the plates were placed in a fluorescence plate reader equipped with a reagent injector. After measuring an initial fluorescence value, iodide-containing buffer was injected and the decrease in fluorescence was followed at excitation and emission wavelengths of 485 and 530 nm, respectively.
# Potentiator activity was calculated as follows. Normalized endpoint fluorescence was calculated by dividing the endpoint fluorescence after iodide injection by the initial fluorescence reading and multiplication by 100. Potentiator EC50 values were calculated by the same method as corrector EC50 values.
# ΔF508 CFTR [2] = biological target: T1, ΔF508 CFTR; test: Corrector activity, YFP halide (iodide) quenching assay in FRT cells expressing ΔF508 CFTR; format: cell-based; set-up: expressed in transfected cells; host or cells: Fischer rat thyroid (FRT) cells; conditions: FRT cells ΔF508 CFTR/YFP, 24 hours with compound at 37° C., forskolin and genistein; read-out: Corrector EC50
# How it was run: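 FRT cells co-expressing ΔF508 CFTR and halide-sensitive YFP were incubated 24 h at 37° C with compounds, then stimulated 30 min at 37° C in PBS with forskolin and genistein. Endpoint fluorescence after iodide injection was normalized to initial reading; EC50 from 4-parameter fit with bottom constrained to DMSO control.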
Structure (SMILES),EC50 (ΔF508 CFTR [1]),EC50 (ΔF508 CFTR [2])
CC(C)(C)n1nc(Oc2ncccn2)c2c(N)ncnc21 [compound 326],> 15 µM,> 15 µM
CCn1nc(N(C)c2cccc(Cl)c2)c2c(N)ncnc21 [compound 317],> 15 µM,> 15 µM
Cc1ccc(-c2nn(C(C)(C)C)c3ncnc(NC(=O)c4ccc(F)cc4)c23)cc1 [compound 94],> 15 µM,5 to 10 µM
CC(=O)N1CC(n2nc(Sc3cccc(Cl)c3)c3c(N)ncnc32)C1 [compound 344],> 15 µM,> 15 µM
CC(C)(C)n1nc([S+]([O-])c2ccccn2)c2c(N)ncnc21 (centres unmarked) [compound 329],> 15 µM,> 15 µM
Nc1ncnc2c1c(-c1ccc(Cl)cc1)nn2CC(F)F [compound 202],> 15 µM,5 to 10 µM
CCn1cc(-c2ccc(Cl)cc2)c2c(NC(=O)c3ccccc3)ncnc21 [compound 272],> 15 µM,< 2 µM
CC(C)(C)n1nc(Oc2cccc(-c3ccccc3)c2)c2c(N)ncnc21 [compound 190],> 15 µM,5 to 10 µM
CC(C)N1CCC(n2nc(-c3ccc(Cl)cc3)c3c(N)ncnc32)CC1 [compound 342],> 15 µM,> 15 µM
CC(C)(C)n1nc(-c2cccc(Oc3ccccc3)c2)c2c(N)ncnc21 [compound 132],> 15 µM,> 15 µM
Cn1cc(-c2ccc(Cl)cc2)c2c(N)ncnc21 [compound 310],> 15 µM,< 2 µM
CC(C)(C)n1nc(Oc2ccc(C(=O)c3ccccc3)cc2)c2c(N)ncnc21 [compound 237],> 15 µM,> 15 µM
Nc1ncnc2c1c(-c1ccc(Cl)cc1)nn2C(=O)OCc1ccccc1 [compound 188],> 15 µM,5 to 10 µM
CC(C)OC(=O)Nc1ncnc2c1c(-c1ccc(Cl)cc1)nn2C(C)(C)C [compound 300],> 15 µM,5 to 10 µM
CCn1nc(Sc2cccc(OC(F)(F)F)c2)c2c(N)ncnc21 [compound 281],> 15 µM,> 15 µM
CCn1nc(S(=O)(=O)c2cccc3ccccc23)c2c(N)ncnc21 [compound 212],> 15 µM,> 15 µM

Structure (SMILES),EC50 (ΔF508 CFTR [1]),EC50 (ΔF508 CFTR [2])
CC(C)(C)n1nc(-c2ccc(Cl)cc2)c2c(NC(=O)O[C@@H]3CCOC3)ncnc21 [compound 335],> 15 µM,5 to 10 µM
"CC(=O)Nc1ncnc2c1c(-c1ccc(F)cc1)nn2C(C)(C)C [compound 118, N-[1-tert-Butyl-3-(4-fluoro-phenyl)-1H-pyrazolo[3,4-d]pyrimidin-4-yl]-acetamide]",> 15 µM,> 15 µM
CCNC(=O)N1CCC(n2nc(-c3ccc(Cl)cc3)c3c(N)ncnc32)CC1 [compound 319],> 15 µM,> 15 µM
CCn1nc(Sc2cccc(OC)c2)c2c(N)ncnc21 [compound 280],> 15 µM,> 15 µM
CCn1nc([S+]([O-])c2cc(F)cc(F)c2)c2c(N)ncnc21 (centres unmarked) [compound 283],> 15 µM,> 15 µM
"CC(C)N1CC(n2nc(-c3ccc(Cl)cc3)c3c(N)ncnc32)C1 [Compound No. 304, 3-(4-Chloro-phenyl)-1-(1-isopropyl-azetidin-3-yl)-1H-pyrazolo[3,4-d]pyrimidin-4-ylamine]",> 15 µM,5 to 10 µM
Nc1ncnc2c1c(-c1ccc(Cl)cc1)nn2-c1ccc([N+](=O)[O-])cn1 [compound 288],> 15 µM,> 15 µM
CN(c1ccccc1)c1nn(C2CCC2)c2ncnc(N)c12 [compound 314],> 15 µM,> 15 µM
"CN1CC[C@@H](n2nc(-c3ccc(Cl)cc3)c3c(N)ncnc32)C1 [Compound No. 356, 3-(4-Chloro-phenyl)-1-(1-methyl-pyrrolidin-3-yl)-1H-pyrazolo[3,4-d]pyrimidin-4-ylamine]",> 15 µM,< 2 µM
CN(C)C(=O)Nc1ncnc2c1c(-c1ccc(Cl)cc1)nn2C(C)(C)C [compound 269],> 15 µM,> 15 µM
CCn1nc([S+]([O-])c2cccc(C(F)(F)F)c2)c2c(N)ncnc21 (centres unmarked) [compound 284],> 15 µM,> 15 µM
CCn1nc(-c2ccc(Cl)cc2)c2c(N)ncnc21 [compound 67],2 to 5 µM,> 15 µM
CCn1nc(Sc2ccccc2F)c2c(N)ncnc21 [compound 217],> 15 µM,> 15 µM
Nc1ncnc2c1c(-c1ccc(Cl)cc1)nn2[C@H]1CCOC1 [compound 318],> 15 µM,> 15 µM
CCC(=O)Nc1ncnc2c1c(-c1ccc(Cl)cc1)cn2CC [compound 271],5 to 10 µM,< 2 µM

# Results, then the molecule that gave them:
EC50 (ΔF508 CFTR [1]),EC50 (ΔF508 CFTR [2]),Structure (SMILES)
< 2 µM,5 to 10 µM,"CC(C)(C)n1nc(-c2ccc(Cl)cc2)c2c(NC(=O)O[C@H]3CCOC3)ncnc21 [Compound No. 301, [1-tert-Butyl-3-(4-chloro-phenyl)-1H-pyrazolo[3,4-d]pyrimidin-4-yl]-carbamic acid tetrahydro-furan-3-yl ester]"
< 2 µM,2 to 5 µM,"CCn1cc(Sc2ccccc2)c2c(N)ncnc21 [Compound No. 333, 7-Ethyl-5-phenylsulfanyl-7H-pyrrolo[2,3-d]pyrimidin-4-ylamine]"
5 to 10 µM,> 15 µM,CCn1nc([S+]([O-])c2ccccn2)c2c(N)ncnc21 (centres unmarked) [compound 353]
5 to 10 µM,> 15 µM,"COc1nn(C(C)(C)C)c2ncnc(N)c12 [compound 312, 1-tert-butyl-3-methoxy-1H-pyrazolo[3,4-d]pyrimidin-4-ylamine]"
< 2 µM,> 15 µM,CC(C)(C)n1nc(Oc2ccc(C#N)cc2)c2c(N)ncnc21 [compound 205]
2 to 5 µM,2 to 5 µM,Nc1ncnc2c1c(-c1ccc(Cl)cc1)cn2CC1CCC1 [compound 262]
2 to 5 µM,2 to 5 µM,CC(C)(C)C(=O)Nc1ncnc2c1c(-c1ccc(Cl)cc1)cn2C(C)(C)C [compound 349]
5 to 10 µM,> 15 µM,"CC(C)(C)n1nc(Sc2cccc(C(F)(F)F)c2)c2c(N)ncnc21 [compound 244, 1-tert-Butyl-3-(3-trifluoromethyl-phenylsulfanyl)-1H-pyrazolo[3,4-d]pyrimidin-4-ylamine]"
2 to 5 µM,2 to 5 µM,CC(=O)N(C(C)=O)c1ncnc2c1c(-c1ccc(Cl)cc1)nn2C(C)(C)C [Compound No. 97]
2 to 5 µM,> 15 µM,Cc1cccc(-c2nn(C(C)(C)C)c3ncnc(N)c23)c1 [compound 104]
< 2 µM,5 to 10 µM,CCn1nc(Sc2cccc(C)c2)c2c(N)ncnc21 [compound 218]
2 to 5 µM,> 15 µM,CC(C)(C)n1nc(Oc2ccccc2[N+](=O)[O-])c2c(N)ncnc21 [compound 331]
2 to 5 µM,> 15 µM,Cc1ccc(C(=O)Nc2ncnc3c2c(-c2ccc(C)cc2)nn3C(C)(C)C)cc1 [compound 95]
< 2 µM,> 15 µM,CC(C)(C)n1nc(Oc2ccc(F)c(F)c2)c2c(N)ncnc21 [compound 174]
2 to 5 µM,> 15 µM,Cc1ccc(-c2nn(C(C)(C)C)c3ncnc(NC(=O)c4ccccc4Cl)c23)cc1 [compound 99]
< 2 µM,< 2 µM,CC(C)(C)n1cc(-c2ccc(Cl)cc2)c2c(NC(=O)C3CCCC3)ncnc21 [compound 321]
2 to 5 µM,> 15 µM,CCn1nc(Sc2cc(F)cc(F)c2)c2c(N)ncnc21 [compound 264]
< 2 µM,> 15 µM,CC(C)(C)n1nc(Sc2ccccc2)c2c(N)ncnc21 [compound 172]
< 2 µM,> 15 µM,CCn1nc(Sc2ccc(F)cc2)c2c(N)ncnc21 [compound 208]
5 to 10 µM,> 15 µM,"CC(C)(C)OC(=O)N1CC(n2nc(Oc3ccccc3)c3c(N)ncnc32)C1 [Compound No. 341, 3-(4-Amino-3-phenoxy-pyrazolo[3,4-d]pyrimidin-1-yl)-azetidine-1-carboxylic acid tert-butyl ester]"
2 to 5 µM,> 15 µM,"CCOC(=O)N1CC(n2nc(Sc3cccc(Cl)c3)c3c(N)ncnc32)C1 [Compound No. 345, 3-[4-Amino-3-(3-chloro-phenylsulfanyl)-pyrazolo[3,4-d]pyrimidin-1-yl]-azetidine-1-carboxylic acid ethyl ester]"
< 2 µM,> 15 µM,CC(C)(C)n1nc(Oc2cccc(F)c2)c2c(N)ncnc21 [compound 200]
5 to 10 µM,< 2 µM,CCn1cc(-c2ccc(Cl)cc2)c2c(NC(=O)C(C)C)ncnc21 [compound 336]
< 2 µM,> 15 µM,CCn1nc(Sc2cccc(Cl)c2)c2c(N)ncnc21 [compound 226]
